In patent US9221809B2 (MERCK SHARP & DOHME CORP., priority 2011, dated 2015) one finds IC50 data, which are given here for 22 compounds.

What is called pIC50 is the IC50 on a negative log10 scale, so that one unit is a factor of ten.

The target of the test is IRAK4 (Homo sapiens (Human), UniProt Q9NWZ3). The test can be described thus: IRAK4 kinase activity, IMAP fluorescence polarization assay. In kind it is biochemical. The note with it: 100 μM ATP. In short, it runs like this: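 Fluorescence polarization (IMAP nanoparticle binding of phosphopeptide) reports activity after a 30 min, 25 °C reaction. Conditions: 100 μM ATP, 0.5 nM GST-IRAK4, 100 nM fluorescent peptide, 10 mM Tris pH 7.2, 1 mM MgCl2, 1 mM DTT, 0.01% Tween 20.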
Sequence of IRAK4 (Q9NWZ3 whole entry): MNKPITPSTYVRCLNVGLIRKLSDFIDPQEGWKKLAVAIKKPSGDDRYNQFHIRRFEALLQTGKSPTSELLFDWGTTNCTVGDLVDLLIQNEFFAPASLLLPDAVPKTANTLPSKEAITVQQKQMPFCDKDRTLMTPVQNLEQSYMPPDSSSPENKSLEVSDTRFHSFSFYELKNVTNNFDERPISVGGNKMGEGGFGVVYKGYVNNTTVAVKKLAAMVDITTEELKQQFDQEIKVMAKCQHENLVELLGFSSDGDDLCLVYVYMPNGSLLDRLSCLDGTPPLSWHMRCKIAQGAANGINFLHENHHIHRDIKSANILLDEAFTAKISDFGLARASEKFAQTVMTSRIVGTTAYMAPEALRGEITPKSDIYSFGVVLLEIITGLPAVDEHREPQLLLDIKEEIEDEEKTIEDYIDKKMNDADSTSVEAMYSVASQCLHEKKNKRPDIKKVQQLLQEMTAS
Background: Polarisation of emitted light reports the rotation of a fluorescent probe.

The mark [1] stands for this setting: unit inferred, read-out: IRAK4 IC50.
[2] abbreviates: 0.5 nM GST tagged IRAK4, read-out: IRAK4 IC50.

pIC50: −log10 of the molar value. Structures can show the parent of a compound that is named as a salt. Where two headings read alike, the source gives them in different places.

Consider `CN(C)CCNc1nc(N2CCOCC2)[nH]c(=O)c1-c1ccc2ccccc2n1` [Example 272, 6-[[2-(dimethylamino)ethyl]amino]-2-(morpholin-4-yl)-5-(quinolin-2-yl)-3,4-dihydropyrimidin-4-one], for which, under “read-out: IC50”, the negative-log IC50 (pIC50) was 5.80. Turning to `O=c1[nH]c(N2CCCN(Cc3nccs3)CC2)nc(N[C@@H]2C[C@H](CO)[C@@H](O)[C@H]2O)c1-c1nc2ccccc2s1` [Example 75, 5-(benzo[d]thiazol-2-yl)-6-((1R,2S,3R,4R)-2,3-dihydroxy-4-(hydroxymethyl)cyclopentylamino)-2-(4-(thiazol-2-ylmethyl)-1,4-diazepan-1-yl)pyrimidin-4(3H)-one], under setting [1], the negative-log IC50 (pIC50) was 6.65.

`C[C@@H]1COCCN1c1nc(N[C@@H]2CCCNC2)c(-c2nc3ccccc3s2)c(=O)[nH]1` [Example 127]: the negative-log IC50 (pIC50) (read-out: IRAK4 IC50) was 5.77.

As to `CS(=O)(=O)N1CCCN(c2nc(N[C@@H]3C[C@H](CO)[C@@H](O)[C@H]3O)c(-c3nc4ccccc4s3)c(=O)[nH]2)CC1` [Example 77, 5-(benzo[d]thiazol-2-yl)-6-((1R,2S,3R,4R)-2,3-dihydroxy-4-(hydroxymethyl)cyclopentylamino)-2-(4-(methylsulfonyl)-1,4-diazepan-1-yl)pyrimidin-4(3H)-one], the pIC50 under setting [1] was 6.65.

Take `Cn1cc(C2CCN(c3nc(N[C@@H]4C[C@H](CO)[C@@H](O)[C@H]4O)c(-c4nc5ccccc5s4)c(=O)[nH]3)CC2)nn1` [Example 73, 5-(benzo[d]thiazol-2-yl)-6-((1R,2S,3R,4R)-2,3-dihydroxy-4-(hydroxymethyl)cyclopentylamino)-2-(4-(1-methyl-1H-1,2,3-triazol-4-yl)piperidin-1-yl)pyrimidin-4(3H)-one]: the negative-log IC50 (pIC50) under setting [1] is 7.71.

Consider `O=C1NCCCC[C@H]1Nc1nc(N2CCOCC2)[nH]c(=O)c1-c1nc2ccccc2s1` [Example 91, (R)-3-(5-(Benzo[d]thiazol-2-yl)-2-morpholino-6-oxo-1,6-dihydropyrimidin-4-ylamino)azepan-2-one.HCl], for which the negative-log IC50 (pIC50) under setting [2] is 5.61.

For `O=C1NC2(CCN(c3nc(N[C@@H]4C[C@H](CO)[C@@H](O)[C@H]4O)c(-c4nc5ccccc5s4)c(=O)[nH]3)CC2)CO1` [Example 81, 8-(5-(benzo[d]thiazol-2-yl)-4-((1R,2S,3R,4R)-2,3-dihydroxy-4-(hydroxymethyl)cyclopentylamino)-6-oxo-1,6-dihydropyrimidin-2-yl)-3-oxa-1,8-diazaspiro[4.5]decan-2-one], the negative-log IC50 (pIC50) under setting [1] is 6.71. Turning to `O=c1[nH]c(Nc2ccc(F)cc2)nc(N[C@@H]2C[C@H](CO)[C@@H](O)[C@H]2O)c1-c1nc2ccccc2s1` [Example 52, 5-(Benzo[d]thiazol-2-yl)-6-((1R,2S,3R,4R)-2,3-dihydroxy-4-(hydroxymethyl)cyclopentylamino)-2-(4-fluorophenylamino)pyrimidin-4(3H)-one.HCl], under setting [2], the pIC50 is 6.55.

Turning to `O=c1[nH]c(N2CCC(c3ccccc3C(F)(F)F)CC2)nc(N[C@@H]2CCCNC2)c1-c1ccc2ccccc2n1` [Example 190, (R)-6-(piperidin-3-ylamino)-5-(quinolin-2-yl)-2-(4-(2-(trifluoromethyl)phenyl)piperidin-1-yl)pyrimidin-4(3H)-one], the pIC50 (read-out: IRAK4 IC50) is 7.49. Consider `C[C@H]1CC[C@@H](Nc2nc(N3CCOCC3)[nH]c(=O)c2-c2ccc3ccccc3n2)CN1` (racemic) [Example 122, 6-(methylpiperidin-3-yl)amino-2-morpholino-5-(quinolin-2-yl)pyrimidin-4(3H)-one.HCl], for which, under setting [2], the negative-log IC50 (pIC50) is 6.27. Consider `O=c1[nH]c(N2CCOCC2)nc(NC2CCC(O)CC2)c1-c1nc2ccccc2s1` (stereo not shown) [Example 268, 5-(benzo[d]thiazol-2-yl)-6-(4-hydroxycyclo-hexylamino)-2-morpholinopyrimidin-4(3H)-one], for which the negative logarithm of the IC50 (pIC50) (read-out: IC50) was 6.21. In the case of `O=c1[nH]c(NC2CCC2)nc(N[C@@H]2CC[C@@H](O)[C@H]2O)c1-c1nc2ccccc2s1` [Example 48, 5-(Benzo[d]thiazol-2-yl)-2-(cyclobutylamino)-6-((1R,2S,3R)-2,3-dihydroxycyclopentylamino)pyrimidin-4(3H)-one.HCl], under setting [2], the pIC50 is 5.65. As for `CC1(O)CN(c2nc(N[C@@H]3CCCNC3)c(-c3ccc4ccccc4n3)c(=O)[nH]2)C1` [Example 171, (R)-2-(3-hydroxy-3-methylazetidin-1-yl)-6-(piperidin-3-ylamino)-5-(quinolin-2-yl)pyrimidin-4(3H)-one], under “read-out: IRAK4 IC50”, the pIC50 is 5.50. On to `O=c1[nH]c(N2CCN(c3nnc(C4CC4)o3)CC2)nc(N[C@@H]2CCCNC2)c1-c1nc2ccccc2s1` [Example 162, (R)-5-(benzo[d]thiazol-2-yl)-2-(4-(5-cyclopropyl-1,3,4-oxadiazol-2-yl)piperazin-1-yl)-6-(piperidin-3-ylamino)pyrimidin-4(3H)-one], for which the negative logarithm of the IC50 (pIC50) (read-out: IRAK4 IC50) is 7.57. As to `Cc1nccc2sc(-c3c(N[C@@H]4C[C@H](CO)[C@@H](O)[C@H]4O)nc(N4CCOCC4)[nH]c3=O)nc12` [Example 56, 6-(((1R,2S,3R,4R)-2,3-Dihydroxy-4-(hydroxymethyl)cyclopentyl)amino)-5-(4-methylthiazolo[4,5-c]pyridin-2-yl)-2-morpholinopyrimidin-4(3H)-one.HCl], the negative logarithm of the IC50 (pIC50) under setting [2] was 8.08. For the compound `O=c1[nH]c(N2CCOCC2)nc(NCCN2CCCC2)c1-c1ccc2ccccc2n1` [Example 279, 2-(morpholin-4-yl)-6-[[2-(pyrrolidin-1-yl)ethyl]amino]-5-(quinolin-2-yl)-3,4-dihydropyrimidin-4-one], for the setting “read-out: IC50”, the pIC50 was 5.31.

`NC(=O)C1CCN(c2nc(N[C@@H]3CCCNC3)c(-c3nc4ccccc4s3)c(=O)[nH]2)CC1` [Example 318, 1-[5-(1,3-benzothiazol-2-yl)-6-oxo-4-[[(3R)-piperidin-3-yl]amino]-1,6-dihydropyrimidin-2-yl]piperidine-4-carboxamide hydrochloride]: the pIC50 (read-out: IC50) is 7.13. On to `O=c1[nH]c(N2CCC(c3cnccn3)CC2)nc(N[C@@H]2C[C@H](CO)[C@@H](O)[C@H]2O)c1-c1nc2ccccc2s1` [Example 69, 5-(benzo[d]thiazol-2-yl)-6-((1R,2S,3R,4R)-2,3-dihydroxy-4-(hydroxymethyl)cyclopentylamino)-2-(4-(pyrazin-2-yl)piperidin-1-yl)pyrimidin-4(3H)-one], for which the negative-log IC50 (pIC50) under setting [1] was 7.90. In the case of `O=c1[nH]c(N2CC[C@H](CO)C2)nc(N[C@@H]2CCCNC2)c1-c1ccc2ccccc2n1` [Example 180, 2-((S)-3-(hydroxymethyl)pyrrolidin-1-yl)-6-((R)-piperidin-3-ylamino)-5-(quinolin-2-yl)pyrimidin-4(3H)-one], where the note is “read-out: IRAK4 IC50”, the pIC50 was 7.82.

For `O=c1[nH]c(N2CCC(c3ccccn3)C2)nc(N[C@@H]2C[C@H](CO)[C@@H](O)[C@H]2O)c1-c1nc2ccccc2s1` (stereo partly drawn) [Example 82, 5-(benzo[d]thiazol-2-yl)-6-((1R,2S,3R,4R)-2,3-dihydroxy-4-(hydroxymethyl)cyclopentylamino)-2-(3-(pyridin-2-yl)pyrrolidin-1-yl)pyrimidin-4(3H)-one], under setting [1], the negative logarithm of the IC50 (pIC50) was 6.71. For the compound `O=c1[nH]c(N2CCN(c3ccccc3F)CC2)nc(N[C@@H]2CCCNC2)c1-c1nc2ccccc2s1` [Example 146, (R)-5-(benzo[d]thiazol-2-yl)-2-(4-(2-fluorophenyl)piperazin-1-yl)-6-(piperidin-3-ylamino)pyrimidin-4(3H)-one], the pIC50 (read-out: IRAK4 IC50) was 7.80. `O=c1[nH]c(N2CCOCC2)nc(N[C@@H]2CCCNC2)c1-c1nc(-c2cc(F)cc(F)c2)cs1` [Example 203]: where the note is “read-out: IRAK4 IC50”, the pIC50 is 7.00.
